The source made the active and inactive calls. No rule for the calls is given here.
Tested on: rodent carcinogenicity bioassays, tumor incidence
Experiment: CCRIS carcinogenicity studies
How it was run: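 NCI-built, expert-reviewed records of carcinogenicity and related test outcomes (mutagenicity, tumor promotion/inhibition) compiled from published and report sources, historical span 1985-2011, not updated.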

Nc1nc(N)nc(N)n1 was tested, and the carcinogen call (Species: MOUSE, Strain/Sex: B6C3F1/FEMALE, Route: ORAL, Dose: 0, 2250, 4500 PPM IN DIET FOR 103 WK, Dose: 0, 2250, 4500 PPM IN DIET FOR 103 WK) was “inactive; negative”, the carcinogen call (Species: MOUSE, Strain/Sex: B6C3F1/MALE, Route: ORAL, Dose: 0, 2250, 4500 PPM IN DIET FOR 103 WK, Dose: 0, 2250, 4500 PPM IN DIET FOR 103 WK) was “inactive; negative” and the carcinogen call (Species: RAT, Strain/Sex: F344/FEMALE, Route: ORAL, Dose: 0, 4500, 9000 PPM IN DIET FOR 103 WK, Dose: 0, 4500, 9000 PPM IN DIET FOR 103 WK) was “inactive; negative”. For the same compound, the carcinogen call (Species: RAT, Strain/Sex: F344/MALE, Route: ORAL, Dose: 0, 0.3, 1, 3% IN DIET FOR 36 WK (STUDY DURATION: 40 WK), Dose: 0, 0.3, 1, 3% IN DIET FOR 36 WK (STUDY DURATION: 40 WK), Tumor Site: Type of Lesion: BLADDER: PAPILLOMA, CARCINOMA) was “active; positive”, the carcinogen call (Species: RAT, Strain/Sex: F344/MALE, Route: ORAL, Dose: 0, 1, 3% IN DIET CONTAINING 5% SODIUM CHLORIDE FOR 36 WK (STUDY DURATION: 40 WK), Dose: 0, 1, 3% IN DIET CONTAINING 5% SODIUM CHLORIDE FOR 36 WK (STUDY DURATION: 40 WK), Tumor Site: Type of Lesion: URAINARY BLADDER: PAPILLOMA, CARCINOMA) was “active; positive” and the carcinogen call (Species: RAT, Strain/Sex: F344/MALE, Route: ORAL, Dose: 0, 1, 3% IN DIET CONTAINING 10% SODIUM CHLORIDE FOR 36 WK (STUDY DURATION: 40 WK), Dose: 0, 1, 3% IN DIET CONTAINING 10% SODIUM CHLORIDE FOR 36 WK (STUDY DURATION: 40 WK)) was “inactive; negative”. The carcinogen call (Species: RAT, Strain/Sex: F344/MALE, Route: ORAL, Dose: 0, 1, 3% IN DIET FOR 36 WK (STUDY DURATION: 40 WK), Dose: 0, 1, 3% IN DIET FOR 36 WK (STUDY DURATION: 40 WK), Tumor Site: Type of Lesion: URINARY BLADDER: PAPILLOMA, CARCINOMA) was “active; positive” and the carcinogen call (Species: RAT, Strain/Sex: F344/MALE, Route: ORAL, Dose: 0, 2250, 4500 PPM IN DIET FOR 103 WK, Dose: 0, 2250, 4500 PPM IN DIET FOR 103 WK, Tumor Site: Type of Lesion: URINARY BLADDER: TRANSITIONAL CELL PAPILLOMA OR CARCINOMA) was “active; positive”.
In the case of C=CC(O)c1ccc2c(c1)OCO2 (stereo not given), the carcinogen call (Species: MOUSE, Strain/Sex: CD-1/FEMALE, Route: ORAL, Dose: 0.083% IN DIET FROM D 1 TO 10, 0.17% FROM D 11 TO 20, 0.55% THEREAFTER TO 12 MO, Tumor Site: Type of Lesion: LIVER: HEPATOCELLULAR CARCINOMA) is reported as “active; positive”, the carcinogen call (Species: MOUSE, Strain/Sex: CD-1/MALE, Route: SUBCUTANEOUS, Dose: TOTAL DOSE: 3.18 UMOL IN TRIOCTANOIN OVER 22 D, Tumor Site: Type of Lesion: LIVER: HEPATOCELLULAR CARCINOMA) is reported as “active; positive” and the carcinogen call (Species: RAT, Strain/Sex: STRAIN-CD/MALE, Route: ORAL, Dose: 0.25% IN DIET FOR 17 MO, 0.55% IN DIET FOR 10 MO, Tumor Site: Type of Lesion: LIVER: HEPATOCELLULAR CARCINOMA) is reported as “active; positive”.
With C=CCOC(=O)CC(C)C the carcinogen call (Species: MOUSE, Strain/Sex: B6C3F1/FEMALE, Route: GAVAGE, Dose: 0, 31, 62 MG/KG IN CORN OIL FOR 103 WK, Dose: 0, 31, 62 MG/KG IN CORN OIL FOR 103 WK, Tumor Site: Type of Lesion: LYMPHATIC SYSTEM: MALIGNANT LYMPHOMA) was “active; positive” and the carcinogen call (Species: RAT, Strain/Sex: F344/MALE, Route: GAVAGE, Dose: 0, 31, 62 MG/KG IN CORN OIL FOR 103 WK, Dose: 0, 31, 62 MG/KG IN CORN OIL FOR 103 WK, Tumor Site: Type of Lesion: HEMATOPOIETIC SYSTEM (LEUKEMIA): MONONUCLEAR CELL LEUKEMIA) was “active; positive”.
For O=C1[C@H]2CC=CC[C@H]2C(=O)N1SC(Cl)(Cl)Cl, the carcinogen call (Species: MOUSE, Strain/Sex: B6C3F1/MALE, Route: ORAL, Dose: 0, 8000, 16000 PPM IN DIET, Dose: 0, 8000, 16000 PPM IN DIET, Tumor Site: Type of Lesion: DUODENUM: ADENOMATOUS POLYP (NOS) OR ADENOCARCINOMA IN ADENOMATOUS POLYP) was “active; positive”, the carcinogen call (Species: MOUSE, Strain/Sex: SWISS/FEMALE, Route: DERMAL, Dose: 0, 450 UG IN 200 µL DMSO 3/WK FOR 52 WK (STUDY DURATION: 52 WK)) was “inactive; negative” and the carcinogen call (Species: Mouse, Strain/Sex: Swiss CD-1/Female (80/dose), Route: Oral, Dose: 0, 2000/6000, 6000/10,000, 10,000/16,000 ppm in diet for 113 wk (lower dose first 4 wk, higher dose for remainder of stu, Dose: 0, 2000/6000, 6000/10,000, 10,000/16,000 ppm in diet for 113 wk (lower dose first 4 wk, higher dose for remainder of stu) was “inactive; negative (purity of 90.7%; study details not given in source)”. The carcinogen call (Species: Mouse, Strain/Sex: Swiss CD-1/Male (80/dose), Route: Oral, Dose: 0, 2000/6000, 6000/10,000, 10,000/16,000 ppm in diet for 113 wk (lower dose first 4 wk, higher dose for remainder of stu, Dose: 0, 2000/6000, 6000/10,000, 10,000/16,000 ppm in diet for 113 wk (lower dose first 4 wk, higher dose for remainder of stu, Tumor Site: Type of Lesion: INTESTINE: Adenomas and adenocarcinomas in jejunum) was “active; positive (10,000 ppm group) (purity of 90.7%; study details n ot given in source”, the carcinogen call (Species: RAT, Strain/Sex: OSBORNE-MENDEL/FEMALE, Route: ORAL, Dose: 0, 2525, 6060 PPM IN DIET, TWA, Dose: 0, 2525, 6060 PPM IN DIET, TWA) was “inactive; negative” and the carcinogen call (Species: RAT, Strain/Sex: OSBORNE-MENDEL/MALE, Route: ORAL, Dose: 0, 2525, 6060 PPM IN DIET, TWA, Dose: 0, 2525, 6060 PPM IN DIET, TWA) was “inactive; negative”. For the same compound, the carcinogen call (Species: Rat, Strain/Sex: CD/Female (50/group), Route: Oral, Dose: 0, 25, 100, 250 mg/kg/day in diet for 2 yr, Dose: 0, 25, 100, 250 mg/kg/day in diet for 2 yr) was “inactive; negative (purity of 89%; study details not given in source)” and the carcinogen call (Species: Rat, Strain/Sex: CD/Male (50/group), Route: Oral, Dose: 0, 25, 100, 250 mg/kg/day in diet for 2 yr, Dose: 0, 25, 100, 250 mg/kg/day in diet for 2 yr, Tumor Site: Type of Lesion: KIDNEY: Renal tubular adenomas or carcinomas (1, 1, 3, 4)) was “active; positive (purity of 89%; study details not given in source)”.
In the case of Cc1ncc[nH]1, the carcinogen call (Species: MOUSE, Strain/Sex: B6C3F1/FEMALE, Route: ORAL (DIET), Dose: 0, 625, 1250, 2500 PPM FOR 105 WKS (STUDY DURATION: 105 WKS), Dose: 0, 625, 1250, 2500 PPM FOR 105 WKS (STUDY DURATION: 105 WKS), Tumor Site: Type of Lesion: LIVER: HEPATOCELLULAR ADENOMA) is reported as “active; positive”, the carcinogen call (Species: MOUSE, Strain/Sex: B6C3F1/MALE, Route: ORAL (DIET), Dose: 0, 625, 1250, 2500 PPM FOR 105 WKS (STUDY DURATION: 105 WKS), Dose: 0, 625, 1250, 2500 PPM FOR 105 WKS (STUDY DURATION: 105 WKS), Tumor Site: Type of Lesion: LIVER: HEPATOCELLULAR ADENOMA OR CARCINOMA, THYROID: FOLLICULAR CELL ADENOMA) is reported as “active; positive” and the carcinogen call (Species: RAT, Strain/Sex: F344/N/FEMALE, Route: ORAL (DIET), Dose: 0, 1000, 2500, 5000 PPM FOR 106 WKS (STUDY DURATION: 106 WKS), Dose: 0, 1000, 2500, 5000 PPM FOR 106 WKS (STUDY DURATION: 106 WKS), Tumor Site: Type of Lesion: THYROID: FOLLICULAR CELL ADENOMA OR CARCINOMA) is reported as “active; positive”. For the same compound, the carcinogen call (Species: RAT, Strain/Sex: F344/N/MALE, Route: ORAL (DIET), Dose: 0, 300, 1000, 3000 PPM FOR 106 WKS (STUDY DURATION: 106 WKS), Dose: 0, 300, 1000, 3000 PPM FOR 106 WKS (STUDY DURATION: 106 WKS)) was “inactive; negative”.
For O=NN1CCCCCCC1, the carcinogen call (Species: HAMSTER, Strain/Sex: EUROPEAN/FEMALE, Route: SUBCUTANEOUS, Dose: 11, 22, 44 MG/KG 3/WK, Dose: 11, 22, 44 MG/KG 3/WK, Tumor Site: Type of Lesion: LUNG: ADENOCARCINOMA, SQUAMOUS CELL CARCINOMA, NASAL CAVITY: SQUAMOUS CELL CARCINOMA) was “active; positive”, the carcinogen call (Species: HAMSTER, Strain/Sex: EUROPEAN/MALE, Route: SUBCUTANEOUS, Dose: 16.5, 33, 66 MG/KG 3/WK, Dose: 16.5, 33, 66 MG/KG 3/WK, Tumor Site: Type of Lesion: LUNG: ADENOCARCINOMA, SQUAMOUS CELL CARCINOMA, NASAL CAVITY: SQUAMOUS CELL CARCINOMA) was “active; positive” and the carcinogen call (Species: HAMSTER, Strain/Sex: SYRIAN/MALE, Route: ORAL, Dose: 50, 200 MG/L 5 NIGHT/WK FOR 50 WK IN DRINKING WATER, Tumor Site: Type of Lesion: NASAL CAVITY, LARYNX, PHARYNX, TRACHEA, ESOPHAGUS, FORESTOMACH, Tumor Site: Type of Lesion: NASAL CAVITY, LARYNX, PHARYNX, TRACHEA, ESOPHAGUS, FORESTOMACH) was “active; positive”. The carcinogen call (Species: RAT, Strain/Sex: LISTER/FEMALE, Route: SUBCUTANEOUS, Dose: 0, 1 MG 1/WK FOR 10 WK (STUDY DURATION: 104 WK)) was “inactive; negative” and the carcinogen call (Species: RAT, Strain/Sex: MRC/MALE,FEMALE, Route: ORAL, Dose: 100 MG/L 5 D/WK FOR 30 WK IN DRINKING WATER, Tumor Site: Type of Lesion: ESOPHAGUS, TRACHEA: SQUAMOUS CELL PAPILLOMA, LUNG: SQUAMOUS CELL CARCINOMA, Tumor Site: Type of Lesion: ESOPHAGUS, TRACHEA: SQUAMOUS CELL PAPILLOMA, LUNG: SQUAMOUS CELL CARCINOMA) was “active; positive”.

From PubChem BioAssay AID1259411 (Chemical Carcinogenesis Research Information System (CCRIS), 2018)
